Patent US20040023961A1, “Aryl ureas with raf kinase and angiogenisis inhibiting activity” (BAYER CORPORATION, priority 2002, published 2004)

Tests used:
[1] = tested on: neovascularization of the joint; settings: rat collagen arthritis model; Peacock et al. 1992; cited from earlier work
Flk-1 = Flk-1 (Mus musculus, UniProt P35918); experiment: In Vitro Flk-1 ELISA Assay; assay type: biochemical, murine; settings: poly-Glu-Tyr coated plates, 3.3 μM ATP
Protocol: In Vitro Flk-1 ELISA Assay
The Flk-1 ELISA assay was performed on 96-well Costar 9018 high-binding plates coated overnight with poly-Glu-Tyr (Sigma #P 0275). After coating, plates were washed with 20 mM HEPES pH=7.5, 150 mM NaCl, 0.1% Tween-20. These plates were then blocked with Blocking Buffer (20 mM HEPES pH=7.5, 150 mM NaCl, 1% BSA, 0.1% Tween-20) for 1 hr at room temperature on a plate shaker. After washing, the reaction was prepared using 20 mM HEPES pH=7.5, 100 mM KCl, 10 mM MgCl2, 3 mM MnCl2 0.05% glycerol, 0.005% Triton X-100, 1 mM BME and 3.3 μM ATP. The assay was initiated with Flk-1 giving a final enzyme concentration of 50 ng/well.
The reaction was incubated at room temperature for 1 hr on a plate shaker and was stopped by washing the plate. The primary antibody incubation step was for 1 hour at room temperature using PT66 phosphotyrosine antibody (Sigma 1:5000 dilution). After washing, the plate was then incubated (1 hr room temp) with the secondary antibody solution of anti-mouse HRP-conjugated antibody (Amersham 1:5000 dilution). After another wash step, plates were developed using 100 μL TMB substrate solution (KPL) and then quenched with KPL stop solution. These quenched plates were read at 450 nm on a Molecular Devices spectrophotomer plate reader. For IC50 generation, compounds were added prior to the enzyme initiation. […]

Flk-1, sequence (P35918 20-1345): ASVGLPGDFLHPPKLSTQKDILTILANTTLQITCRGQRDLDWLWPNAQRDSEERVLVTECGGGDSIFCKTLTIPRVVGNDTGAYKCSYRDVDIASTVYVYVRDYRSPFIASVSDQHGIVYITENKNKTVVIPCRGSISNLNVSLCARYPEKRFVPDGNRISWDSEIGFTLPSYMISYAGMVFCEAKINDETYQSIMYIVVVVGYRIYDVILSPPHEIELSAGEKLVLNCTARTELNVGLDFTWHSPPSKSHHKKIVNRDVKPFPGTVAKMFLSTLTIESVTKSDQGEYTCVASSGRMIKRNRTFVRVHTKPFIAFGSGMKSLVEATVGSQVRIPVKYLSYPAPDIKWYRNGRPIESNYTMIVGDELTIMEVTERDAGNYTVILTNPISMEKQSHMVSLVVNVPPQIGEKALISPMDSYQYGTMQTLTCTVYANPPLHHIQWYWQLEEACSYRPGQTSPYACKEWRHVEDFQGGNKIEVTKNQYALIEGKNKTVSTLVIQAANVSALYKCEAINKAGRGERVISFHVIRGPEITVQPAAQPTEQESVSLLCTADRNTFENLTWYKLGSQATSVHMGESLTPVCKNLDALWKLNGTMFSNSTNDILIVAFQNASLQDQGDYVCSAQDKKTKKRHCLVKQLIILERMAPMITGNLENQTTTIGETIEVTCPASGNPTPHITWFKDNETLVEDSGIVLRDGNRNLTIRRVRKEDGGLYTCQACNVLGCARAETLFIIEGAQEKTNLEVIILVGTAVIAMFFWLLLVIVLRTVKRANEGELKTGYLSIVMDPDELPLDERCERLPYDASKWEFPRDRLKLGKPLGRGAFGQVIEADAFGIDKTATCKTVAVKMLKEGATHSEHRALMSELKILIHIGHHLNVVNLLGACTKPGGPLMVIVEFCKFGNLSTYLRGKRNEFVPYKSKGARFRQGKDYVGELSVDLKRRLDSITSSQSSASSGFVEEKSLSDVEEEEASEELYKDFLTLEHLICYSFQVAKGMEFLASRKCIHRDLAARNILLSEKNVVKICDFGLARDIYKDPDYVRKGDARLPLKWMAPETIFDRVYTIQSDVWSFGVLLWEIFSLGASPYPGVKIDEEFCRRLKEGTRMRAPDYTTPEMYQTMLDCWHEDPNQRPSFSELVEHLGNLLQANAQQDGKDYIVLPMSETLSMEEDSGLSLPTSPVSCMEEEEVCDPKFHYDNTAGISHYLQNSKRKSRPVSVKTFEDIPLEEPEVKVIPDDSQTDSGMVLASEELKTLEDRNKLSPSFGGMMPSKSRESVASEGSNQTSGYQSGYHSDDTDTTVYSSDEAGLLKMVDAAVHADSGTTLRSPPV

Row | IC50 (Flk-1) [nM] | Structure (SMILES) | neovascularization of the joint [1]
1 | – | CO[C@@H]1[C@H](OC(=O)NC(=O)CCl)CC[C@]2(CO2)[C@H]1[C@@]1(C)O[C@@H]1CC=C(C)C [AGM-170] | prevent neovascularization of the joint
2 | < 1000 | Cc1ccc(-n2nc(C(C)(C)C)cc2NC(=O)Nc2ccc(OCCN3CCOCC3)c3ccccc23)cc1 [{[3-(tert-butyl)-1-(4-methylphenyl)pyrazol-5-yl]amino}-N-[4-(2-morpholin-4-ylethoxy)naphthyl]carboxamide] | –
